Reference: BindingDB's records for doi:10.1021/jm000317+ (Virginia Commonwealth University, 2001)

experiment: Ki value determined against Sigma opioid receptor type 2 using [3H]DTG(5 nM) with 1uM dextrallorphan to mask sigma1 binding

Question: Which Ki does the source give for `CC1C2Cc3ccc(O)cc3[C@@]1(C)CCN2CCC#N` (some centres not stated) [3-(8-Hydroxy-6,11-dimethyl-1,2,5,6-tetrahydro-4H-2,6-methano-benzo[d]azocin-3-yl)-propionitrile] here?
Answer: > 100 µM

Question: With `C=CCN1CC[C@]2(C)c3cc(O)ccc3CC1C2C` (some centres not stated) [3-Allyl-6,11-dimethyl-1,2,3,4,5,6-hexahydro-2,6-methano-benzo[d]azocin-8-ol] as the molecule, how does the Ki read?
Answer: 27 µM

Question: Which Ki does the source give for `C=CCCN1CC[C@]2(C)c3cc(O)ccc3CC1C2C` (some centres not stated) [3-But-3-enyl-6,11-dimethyl-1,2,3,4,5,6-hexahydro-2,6-methano-benzo[d]azocin-8-ol] here?
Answer: 7.6 µM

Question: Which Ki does the source give for `C#CCCN1CC[C@]2(C)c3cc(O)ccc3CC1C2C` (some centres not stated) [3-But-3-ynyl-6,11-dimethyl-1,2,3,4,5,6-hexahydro-2,6-methano-benzo[d]azocin-8-ol] here?
Answer: 15 µM

Question: With `C=CCCCCN1CC[C@]2(C)c3cc(O)ccc3CC1C2C` (some centres not stated) [3-Hex-5-enyl-6,11-dimethyl-1,2,3,4,5,6-hexahydro-2,6-methano-benzo[d]azocin-8-ol] as the molecule, how does the Ki read?
Answer: 0.76 µM

Question: For `CC1C2Cc3ccc(O)cc3[C@@]1(C)CCN2CCCC#N` (some centres not stated) [4-(8-Hydroxy-6,11-dimethyl-1,2,5,6-tetrahydro-4H-2,6-methano-benzo[d]azocin-3-yl)-butyronitrile], which Ki is on record?
Answer: 34 µM

Question: Which Ki does the source give for `CC1C2Cc3ccc(O)cc3[C@@]1(C)CCN2CCCCC#N` (some centres not stated) [5-(8-Hydroxy-6,11-dimethyl-1,2,5,6-tetrahydro-4H-2,6-methano-benzo[d]azocin-3-yl)-pentanenitrile] here?
Answer: 13 µM

Question: Which Ki does the source give for `C=CCCCN1CC[C@]2(C)c3cc(O)ccc3CC1C2C` (some centres not stated) [6,11-Dimethyl-3-pent-4-enyl-1,2,3,4,5,6-hexahydro-2,6-methano-benzo[d]azocin-8-ol] here?
Answer: 2.5 µM

Question: With `C#CCCCN1CC[C@]2(C)c3cc(O)ccc3CC1C2C` (some centres not stated) [6,11-Dimethyl-3-pent-4-ynyl-1,2,3,4,5,6-hexahydro-2,6-methano-benzo[d]azocin-8-ol] as the molecule, how does the Ki read?
Answer: 3.5 µM

Question: Which Ki does the source give for `CC1C2Cc3ccc(O)cc3[C@@]1(C)CCN2CCCCCC#N` (some centres not stated) [6-(8-Hydroxy-6,11-dimethyl-1,2,5,6-tetrahydro-4H-2,6-methano-benzo[d]azocin-3-yl)-hexanenitrile] here?
Answer: 5.7 µM

Question: With `CC1C2Cc3ccc(O)cc3[C@@]1(C)CCN2CCCCCCC#N` (some centres not stated) [7-(8-Hydroxy-6,11-dimethyl-1,2,5,6-tetrahydro-4H-2,6-methano-benzo[d]azocin-3-yl)-heptanenitrile] as the molecule, how does the Ki read?
Answer: 1.9 µM

Question: For `CC1C2Cc3ccc(O)cc3[C@@]1(C)CCN2CC#N` (some centres not stated) [(8-Hydroxy-6,11-dimethyl-1,2,5,6-tetrahydro-4H-2,6-methano-benzo[d]azocin-3-yl)-acetonitrile], which Ki is on record?
Answer: 93 µM
